Assay results reported in ChEMBL document CHEMBL1151626, “Diphenylamine, an antihyperglycemic agent from onion and tea” (1984).

Columns and labels:
Format in all cases: functional
Set-up in all cases: scale not given: the % may be the effect or the level left
Oryctolagus cuniculus [1] = test: Hypoglycemic activity in rabbit assessed as reduction of plasma glucose at 50 mg/kg, po after 2 hrs
Oryctolagus cuniculus [2] = test: Hypoglycemic activity in fasting rabbit assessed as reduction of plasma glucose at 50 mg/kg, po
Oryctolagus cuniculus [3] = test: Hypoglycemic activity in glucose-fed rabbit assessed as reduction of plasma glucose at 50 mg/kg, po after 2.5 hrs
Oryctolagus cuniculus [4] = test: Hypoglycemic activity in glucose-fed rabbit assessed as reduction of plasma glucose at 50 mg/kg, po after 2 hrs
Oryctolagus cuniculus [5] = test: Hypoglycemic activity in glucose-fed rabbit assessed as reduction of plasma glucose at 50 mg/kg, po after 1 hr
Oryctolagus cuniculus [6] = test: Hypoglycemic activity in glucose-fed rabbit assessed as reduction of plasma glucose at 50 mg/kg, po after 1.5 hrs
Oryctolagus cuniculus [7] = test: Hypoglycemic activity in glucose-fed rabbit assessed as reduction of plasma glucose at 50 mg/kg, po after 0.5 hr
Oryctolagus cuniculus [8] = test: Hypoglycemic activity in glucose-fed rabbit assessed as reduction of plasma glucose at 10 mg/kg, po after 1.5 hrs
Oryctolagus cuniculus [9] = test: Hypoglycemic activity in glucose-fed rabbit assessed as reduction of plasma glucose at 10 mg/kg, po after 0.5 hr
Oryctolagus cuniculus [10] = test: Hypoglycemic activity in glucose-fed rabbit assessed as reduction of plasma glucose at 10 mg/kg, po after 1 hr
Oryctolagus cuniculus [11] = test: Hypoglycemic activity in fasting rabbit assessed as reduction of plasma glucose at 10 mg/kg, po
Oryctolagus cuniculus [12] = test: Hypoglycemic activity in glucose-fed rabbit assessed as reduction of plasma glucose at 10 mg/kg, po after 2.5 hrs
Oryctolagus cuniculus [13] = test: Hypoglycemic activity in glucose-fed rabbit assessed as reduction of plasma glucose at 10 mg/kg, po after 2 hrs
Oryctolagus cuniculus [14] = test: Hypoglycemic activity in rabbit assessed as reduction of plasma glucose at 10 mg/kg, po after 2 hrs

SMILES	Activity (Oryctolagus cuniculus [1])	Activity (Oryctolagus cuniculus [2])	Activity (Oryctolagus cuniculus [3])	Activity (Oryctolagus cuniculus [4])	Activity (Oryctolagus cuniculus [5])	Activity (Oryctolagus cuniculus [6])	Activity (Oryctolagus cuniculus [7])	Activity (Oryctolagus cuniculus [8])	Activity (Oryctolagus cuniculus [9])	Activity (Oryctolagus cuniculus [10])	Activity (Oryctolagus cuniculus [11])	Activity (Oryctolagus cuniculus [12])	Activity (Oryctolagus cuniculus [13])	Activity (Oryctolagus cuniculus [14])
CCCCNC(=O)NS(=O)(=O)c1ccc(C)cc1 [TOLBUTAMIDE]	44.1%	104.2 mg%	95.1 mg%	104 mg%	154.3 mg%	125.2 mg%	129 mg%	–	–	–	–	–	–	–
c1ccc(Nc2ccccc2)cc1 [DIPHENYLAMINE]	–	–	–	–	–	–	–	80.2 mg%	140.2 mg%	154.6 mg%	102.2 mg%	77.2 mg%	71.8 mg%	61.4%
